Experimental data taken from publication PMC9381536, “Non-apoptotic cell death induction via sapogenin based supramolecular particles” (Scientific Reports, 2022).

Key:
[1] = tested on: HCC1937; design: method as in PMID 33136369; conditions: cited from earlier work
[2] = tested on: CHOP; assay: CHOP expression (immunoblot, q-RTPCR); type: cell-based
Source text: Figure 3 mRNA microarray analysis was used to identify differentially expressed genes via AG-08 treatment. (A) Heatmap representing the expressions of 193 genes with significant different expression in AG-08 treated cells compared with control. Heatmap was generated by GraphPad Prism version 8 (https://www.graphpad.com/scientific-software/prism/). (B) Protein–protein network analysis was formed via STRING. The thickness of the connecting lines indicates the strength of data support for physical and/or functional associations. (C) Pathway enrichment was determined using GO, KEGG, and Reactome pathway analysis. […] Size of circle represents the significance of enrichment. (D) The protein levels of CHOP were determined via IB. 0.5 µg/ml tunicamycin (Tun) was used as positive control. The experiments were repeated three times independently; with one representative result shown. (E) mRNA level of the CHOP was investigated using quantitative PCR (q-RTPCR). Error bars represent standard error (s.e.). p-values were calculated with respect to vehicle-treated cells by one-way Anova test. (**p < 0.005, ****p < 0.0001). (F) The expression and localization of Calnexin protein were evaluated using immunofluorescence via anti-Calnexin antibody (scale bar 25 µm).
The total RNA was isolated using Total RNA Isolation Kit (Bio-Rad, US) following the manufacturer’s instructions. cDNAs were synthesized using The iScript cDNA synthesis kit (Bio-Rad, US) according to the manufacturer’s instructions. To gene expression analysis, specific primers were designed against CHOP (forward: […], reverse: […] ). Quantitative RT-PCR (qRT-PCR) was performed using The SYBR Green I Mastermix (Bio-Rad, US) and LightCycler480 thermocycler (Roche). […] For relative quantification, reaction efficiency incorporated ΔΔCq formula was used. […]
Cell lysates were prepared by RIPA buffer (1XPBS, 1% nonidet P-40, 0.5% sodium deoxycholate, and 0.1% SDS, pH 8.0). Protein concentrations were determined by bicinchoninic acid (BCA) protein assay (Thermo Fisher Scientific, US). […]

[3] = Nile red staining (particle formation); type: physicochemical; conditions: Nile red, PBS, 3 h
Method: AG-08 and AG were dissolved in DMSO as a 1000-fold concentrated stock added into the filtered PBS, which contain 2.5 µM Nile red. After 3 h incubation at room temperature, the fluorescence intensity was measured with a microplate reader (550 nm for excitation and 635 nm for the emission wavelength) (Varioscan, Thermo Fisher Scientific, US).

Compound: Cc1ccc(S(=O)(=O)OC2CCC3(C)C4=CCC5(C)C(C6(C)CCC(C(C)(C)O)O6)C(O)CC5(C)C4C=CC3C2(C)C)cc1 (centres unmarked) [AG-08]
- IC50 [1]: 3.81 µM
- CHOP protein level ([2]; 8 µM): enhanced
- CHOP protein level ([2]; 16 µM): decreased
- CHOP (DDIT3) expression ([2]; AG-08 treated cells): upregulated in a dose-dependent manner
- critical assembly concentration [3]: approximately 2 µM
